Assays:
[1] = test system: MCF7/D40 tumors; assay: Biodistribution in mice bearing MCF7/D40 tumors; type: in vivo, SCID mice
Description: (§1) Tumor cell lines used. MCF7/S: Cells are parental, drug (doxorubicin) sensitive, breast carcinoma cells. MCF7/D40: Cells were generated in vitro by successive culturing parental MCF7 cells in slowly increasing concentrations of doxorubicin with a total selection time of 31 months. Twenty-eight SCID mice were studied. MCF7/S or MCF7/D40 tumors were grown for 10-14 days after subcutaneous injection of 1×10^6 cells into the right thigh. Groups of mice with the xenografted tumors included: (MCF7/S group: MIBI: n=9; GLA: n=8) and (MCF7/D40 group: MIBI: n=6; GLA: n=5).
(§2) ^99mTc-GLA or ^99mTc-MIBI (5-8 mCi, 185-296 MBq) was injected via a jugular vein catheter. Dynamic images were acquired for 2 hours. Twenty-four projections were obtained, one from each camera. Each scintillation event within the camera's NaI crystal was registered as the digitized outputs from the camera's four photomultiplier tubes. The four photomultiplier outputs were compared to a 20-bit look-up table derived from a calibration procedure that involved moving a collimated source across the camera face.
(§3) Tumors and organs were harvested and counted in a dose calibrator. The percent injected dose per gram (% ID/g) was calculated. Membrane preparations made from MCF7/S and MCF7/D40 tumors were immunoblotted with the mouse monoclonal antibody C219 against Pgp followed by a secondary antibody, which was detected by chemiluminescence. […] No immunodetectable MDR1 Pgp was presented in MCF7/S cells.

[2] = test system: MCF7/S tumor xenograft; assay: FASTSPECT dynamic imaging and tumor washout kinetics, drug-sensitive xenograft; type: in vivo, SCID mice
Description: as §1
(§4) The dynamic imaging system SPECT consisted of 24 small modular gamma cameras. Each modular camera consists of a 10 cm×10 cm NaI(Tl) scintillation crystal, 4 square (5 cm×5 cm) Hamamatsu photomultiplier tubes. The system included a cylindrical aperture with twenty four 1-mm diameter pinholes drilled in the aperture. A point source in the center of the field of view is projected simultaneously to the center of each camera. Total magnification is 3.5 in a 3.0 cm×3.2 cm×3.2 cm field of view. The spatial resolution of the system is about 1.0 mm, with a sensitivity of 13.3 cps/μCi.
as §2
(§5) Tumor image reconstruction was performed using 100 iterations of the maximum-likelihood expectation-maximization (ML-EM) algorithm. Using SlicerDicer software, three-dimensional images were computed to provide images in a 33×49×49 voxels format, and generate tomographic transaxial, coronal and sagittal slices with one-pixel thickness (1.0 mm). Regions of interest (ROI) over the tumors were created and applied to the dynamic images for determining time-activity curves. The percent washout rate relative to the peak uptake of the tumors were calculated.

[3] = test system: MCF7/S tumors; assay: Biodistribution in mice bearing MCF7/S tumors; type: in vivo, SCID mice
Description: as §1, §2, §3

[4] = test system: BT20 tumors; settings: cited from earlier work
[5] = test system: MCF7 breast tumors; assay: FASTSPECT dynamic imaging of MCF7 tumor xenografts (MCF7/S and MCF7/D40 together); type: in vivo, SCID mice
Description: as §1, §4, §2, §5

[6] = Table 2, MCF7/D40 mice, 2 hours after injection
[7] = Table 4 (Example 3), MCF7/D40 mice
[8] = Table 2, MCF7/S mice, 2 hours after injection
[9] = Table 4 (Example 3), MCF7/S mice

Question: Which “tumor-to-muscle ratio relative to that for 99mTc-sestamibi (fold higher)” value ([1]; MCF7/D40 tumors, 2 hours after injection) does the source give for ^99mTc-glucarate here?
Answer: Its value is 19.2 fold.

Question: What about the “Biodistribution, blood” value [1, 6] of the same substance?
Answer: Its value is 1.07 ± 0.14 % ID/gm.

Question: What about the “Biodistribution, heart” value [1, 6] of the same substance?
Answer: Its value is 0.55 ± 0.10 % ID/gm.

Question: And the “Biodistribution, kidneys” value [1, 6]?
Answer: The value was 22.10 ± 1.59 % ID/gm.

Question: What about the “Biodistribution, liver” value [1, 6] of the same substance?
Answer: The value was 1.56 ± 0.18 % ID/gm.

Question: What about the “Biodistribution, lung” value [1, 6] of the same substance?
Answer: The value was 1.41 ± 0.54 % ID/gm.

Question: And the “Biodistribution, muscle” value [1, 6]?
Answer: The value was 0.25 ± 0.04 % ID/gm.

Question: What about the “Biodistribution, tumor” value [1, 6] of the same substance?
Answer: The value was 1.39 ± 0.12 % ID/gm.

Question: And the “Biodistribution, blood” value [1, 7]?
Answer: The value was 1.07 ± 0.14 % ID/g.

Question: What about the “Biodistribution, heart” value [1, 7] of the same substance?
Answer: Its value is 0.55 ± 0.1 % ID/g.

Question: What about the “Biodistribution, kidneys” value [1, 7] of the same substance?
Answer: The value was 22.10 ± 1.59 % ID/g.

Question: What about the “Biodistribution, liver” value [1, 7] of the same substance?
Answer: The value was 1.56 ± 0.18 % ID/g.

Question: And the “Biodistribution, lung” value [1, 7]?
Answer: The value was 1.41 ± 0.54 % ID/g.

Question: And the “Biodistribution, muscle” value [1, 7]?
Answer: Its value is 0.25 ± 0.04 % ID/g.

Question: What about the “Biodistribution, tumor” value [1, 7] of the same substance?
Answer: Its value is 1.39 ± 0.12 % ID/g.

Question: What about the Tumor/Blood ratio [1, 7] of the same substance?
Answer: The Tumor/Blood ratio was 1.38 ± 0.19.

Question: What about the Tumor/Muscle ratio [1, 7] of the same substance?
Answer: The Tumor/Muscle ratio was 6.23 ± 0.89.

Question: And the mean tumor-to-muscle ratio ([1]; drug-resistant tumors (MCF7/D40))?
Answer: The mean tumor-to-muscle ratio was 6.2.

Question: What about the “two-hour fractional washout (% peak activity)” value [2] of the same substance?
Answer: The value was 72.8±3.1%.

Question: What about the “time after injection at which tumor was first visualized/detected” value ([2]; FASTSPECT) of the same substance?
Answer: Its value is no more than 5 min.

Question: What about the “time after injection until which tumor stayed visualized/detectable” value ([2]; FASTSPECT, 120 min acquisition) of the same substance?
Answer: Its value is “at least 120 min”.

Question: And the “tumor-to-muscle ratio relative to that for 99mTc-sestamibi (fold higher)” value ([3]; MCF7/S tumors, 2 hours after injection)?
Answer: The value was 9.4 fold.

Question: What about the “Biodistribution, blood” value [3, 8] of the same substance?
Answer: Its value is 1.13 ± 0.16 % ID/gm.

Question: And the “Biodistribution, heart” value [3, 8]?
Answer: The value was 0.64 ± 0.08 % ID/gm.

Question: What about the “Biodistribution, kidneys” value [3, 8] of the same substance?
Answer: The value was 22.70 ± 1.38 % ID/gm.

Question: And the “Biodistribution, liver” value [3, 8]?
Answer: The value was 2.04 ± 0.37 % ID/gm.

Question: And the “Biodistribution, lung” value [3, 8]?
Answer: Its value is 1.08 ± 0.10 % ID/gm.

Question: And the “Biodistribution, muscle” value [3, 8]?
Answer: Its value is 0.27 ± 0.02 % ID/gm.

Question: What about the “Biodistribution, tumor” value [3, 8] of the same substance?
Answer: The value was 1.15 ± 0.17 % ID/gm.

Question: And the “Biodistribution, blood” value [3, 9]?
Answer: Its value is 1.19 ± 0.17 % ID/g.

Question: What about the “Biodistribution, heart” value [3, 9] of the same substance?
Answer: The value was 0.70 ± 0.09 % ID/g.

Question: And the “Biodistribution, kidneys” value [3, 9]?
Answer: The value was 22.59 ± 1.38 % ID/g.

Question: What about the “Biodistribution, liver” value [3, 9] of the same substance?
Answer: Its value is 2.10 ± 0.35 % ID/g.

Question: And the “Biodistribution, lung” value [3, 9]?
Answer: Its value is 1.15 ± 0.11 % ID/g.

Question: And the “Biodistribution, muscle” value [3, 9]?
Answer: Its value is 0.29 ± 0.02 % ID/g.

Question: And the “Biodistribution, tumor” value [3, 9]?
Answer: Its value is 1.16 ± 0.17 % ID/g.

Question: What about the Tumor/Blood ratio [3, 9] of the same substance?
Answer: Its Tumor/Blood ratio is 1.13 ± 0.23.

Question: What about the Tumor/Muscle ratio [3, 9] of the same substance?
Answer: Its Tumor/Muscle ratio is 4.37 ± 0.89.

Question: What about the mean tumor-to-muscle ratio ([3]; drug-sensitive tumors (MCF7/S)) of the same substance?
Answer: Its mean tumor-to-muscle ratio is 4.5.

Question: And the “tumor uptake compared with 99mTc-DTPA” value ([4]; BT20 breast tumors)?
Answer: Its value is “significantly greater”.

Question: What about the “tumor to non-tumor (shoulder region tissue) ratio” value ([4]; twelve hours after intravenous injection) of the same substance?
Answer: The value was 20.53.

Question: And the “tumor uptake compared with 99mTc-sestamibi” value ([4]; xenografted BT20 tumors)?
Answer: The value was “significantly higher uptake”.

Question: And the “time tumors remained detectable after injection” value ([5]; Example 3)?
Answer: Its value is “at least 2 hrs”.

Question: What about the “time to initial visualization of tumors after injection” value ([5]; FASTSPECT imaging, all tumors of the glucarate groups, i.v.) of the same substance?
Answer: Its value is no more than 5 min.

Question: And the “time to unequivocal localization/visualization of tumors after injection” value ([5]; FASTSPECT imaging, i.v.)?
Answer: Its value is 10 to 30 min.

Question: And the “time radioactive accumulation in the MCF7 tumors remained post-injection” value ([5]; dynamic images)?
Answer: The value was “at least 120 minutes”.

— patent US20050152835A1, “Technetium-99M glucarate methods of use for monitoring tissues” (priority 2003, published 2005)
